{"source": "patent US10280179B2", "about": "“Spiroquinoxaline derivatives as inhibitors of non-apoptotic regulated cell-death” (Helmholtz Zentrum Munchen—Deutches Forschungszentrum Fur …, priority 2013, dated 2019)", "key": {"[1]": {"tested_on": "human neuroblastoma cell line SH-SY5Y", "assay": "Inhibition of BSO-induced non-apoptotic cell death (Example B.1)", "assay_type": "cell-based", "details": "SH-SY5Y cells, 72 hours", "in_short": "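SH-SY5Y cells exposed to 50 μM BSO together with compound (0.5 pM–100 μM, triplicate) for 72 h at 37°C, 5% CO2. Survival measured by AquaBluer fluorescence (ex 530–560/em 590 nm), normalised to percent surviving cells, and IC50 derived.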"}, "C57BL/6 mice": {"tested_on": "C57BL/6 mice", "assay": "Traumatic brain injury (controlled cortical impact) animal model (Example C.5)", "assay_type": "in vivo, mouse", "details": "TBI (CCI), 24 h after CCI, compared to vehicle control, FIG. 4", "procedure": "FIG. 4: Efficiency of a compound of the invention in an animal model of traumatic brain injury.\nBriefly, to test such utility of compounds disclosed herein, male C57BL/6 mice are anesthetised prior to the induction of trauma. Core body temperature is maintained at 37° C. using a feedback-controlled heating pad connected to a rectal probe. To induce trauma, a craniotomy is prepared over the right parietal cortex. Controlled cortical impact (CCI) is delivered perpendicular to the surface of the brain with a custom-made CCI applicator for mice using the following parameters: 8 m/s velocity, 3 mm diameter, 1 mm brain displacement and 150 ms duration. Following CCI, the skull is closed by affixing the removed bone flap using veterinary-grade tissue glue (Vetbond, 3M, St. Paul, Minn.). Compounds are administered at 1 mg/Kg or 10 mg/Kg (dissolved in 40% PEG) 15 minutes after TBI induction and 40% PEG is included as vehicle control. The animals are recovered from anesthesia in an incubator heated to 33° C. Animals are sacrificed and the brain is removed 24 h after CCI and immediately frozen on crushed dry ice and stored at −80° C. […] The sections are stained with cresyl violet for quantifying the area of contused brain, and contusion volume is calculated and the effect of the compounds tested observed following analysis of such data."}}, "note": "pIC50: −log10 of the molar value. Where two headings read alike, the source gives them in different places.", "data": [{"smiles": "Clc1cccc(CNC2=Nc3ccccc3NC23CCNCC3)c1", "note": "[N-2]", "values": [{"measurement": "pIC50", "setting": "[1]; 50 μM BSO, read-out: SH-SY5Y/BSO IC50", "value": "> 7.70"}, {"measurement": "pIC50", "setting": "[1]; BSO 50 μM, cell survival (AquaBluer), read-out: SH-SY5Y/BSO (Example B.1) IC50", "value": 8.55}, {"measurement": "contusion volume in the brains of mice following traumatic brain injury", "setting": "C57BL/6 mice", "value": "trend of a (non-significant) positive effect"}]}]}
